Test results published in patent US20220071971A1, “MACROCYCLIC COMPOUNDS AND THEIR USE IN THE TREATMENT OF DISEASE” (NOVARTIS AG, priority 2018, published 2022).

Target: T1, delF508-CFTR (Homo sapiens, UniProt P13569, DEL508-508)
T1 construct: expressed in transfected cells
Assay: Measurement of delF508-CFTR-HRP surface expression in CFBE41o- cells
Type: cell-based
Conditions: for Emax: CFBE41o-, efficacy relative to reference compound 3-(6-(1-(2,2-difluorobenzo[d][1,3]dioxol-5-yl)cyclopropane-1-carboxamido)-3-methylpyridin-2-yl)benzoic acid, read-out: DelF508-CFTR-HRP Amax %; for EC50: HRP-tagged delF508-CFTR surface expression, CFBE41o- cells, 24 h with compound, 10-point curve, highest concentration 10 μM
Summary of the method: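 CFBE41o- cells stably expressing delF508-CFTR with HRP in the fourth extracellular loop, induced 48 h with 500 ng/mL doxycycline, then exposed to compound (10-point, 3-fold, top 10 μM, ≤0.5% DMSO) for 24 h at 37° C. Surface HRP read by luminescence with cell-impermeant substrate; EC50 by logistic fit, triplicates, efficacy relative to reference corrector.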

T1 sequence (P13569 with tags, fused parts or gaps DEL508-508): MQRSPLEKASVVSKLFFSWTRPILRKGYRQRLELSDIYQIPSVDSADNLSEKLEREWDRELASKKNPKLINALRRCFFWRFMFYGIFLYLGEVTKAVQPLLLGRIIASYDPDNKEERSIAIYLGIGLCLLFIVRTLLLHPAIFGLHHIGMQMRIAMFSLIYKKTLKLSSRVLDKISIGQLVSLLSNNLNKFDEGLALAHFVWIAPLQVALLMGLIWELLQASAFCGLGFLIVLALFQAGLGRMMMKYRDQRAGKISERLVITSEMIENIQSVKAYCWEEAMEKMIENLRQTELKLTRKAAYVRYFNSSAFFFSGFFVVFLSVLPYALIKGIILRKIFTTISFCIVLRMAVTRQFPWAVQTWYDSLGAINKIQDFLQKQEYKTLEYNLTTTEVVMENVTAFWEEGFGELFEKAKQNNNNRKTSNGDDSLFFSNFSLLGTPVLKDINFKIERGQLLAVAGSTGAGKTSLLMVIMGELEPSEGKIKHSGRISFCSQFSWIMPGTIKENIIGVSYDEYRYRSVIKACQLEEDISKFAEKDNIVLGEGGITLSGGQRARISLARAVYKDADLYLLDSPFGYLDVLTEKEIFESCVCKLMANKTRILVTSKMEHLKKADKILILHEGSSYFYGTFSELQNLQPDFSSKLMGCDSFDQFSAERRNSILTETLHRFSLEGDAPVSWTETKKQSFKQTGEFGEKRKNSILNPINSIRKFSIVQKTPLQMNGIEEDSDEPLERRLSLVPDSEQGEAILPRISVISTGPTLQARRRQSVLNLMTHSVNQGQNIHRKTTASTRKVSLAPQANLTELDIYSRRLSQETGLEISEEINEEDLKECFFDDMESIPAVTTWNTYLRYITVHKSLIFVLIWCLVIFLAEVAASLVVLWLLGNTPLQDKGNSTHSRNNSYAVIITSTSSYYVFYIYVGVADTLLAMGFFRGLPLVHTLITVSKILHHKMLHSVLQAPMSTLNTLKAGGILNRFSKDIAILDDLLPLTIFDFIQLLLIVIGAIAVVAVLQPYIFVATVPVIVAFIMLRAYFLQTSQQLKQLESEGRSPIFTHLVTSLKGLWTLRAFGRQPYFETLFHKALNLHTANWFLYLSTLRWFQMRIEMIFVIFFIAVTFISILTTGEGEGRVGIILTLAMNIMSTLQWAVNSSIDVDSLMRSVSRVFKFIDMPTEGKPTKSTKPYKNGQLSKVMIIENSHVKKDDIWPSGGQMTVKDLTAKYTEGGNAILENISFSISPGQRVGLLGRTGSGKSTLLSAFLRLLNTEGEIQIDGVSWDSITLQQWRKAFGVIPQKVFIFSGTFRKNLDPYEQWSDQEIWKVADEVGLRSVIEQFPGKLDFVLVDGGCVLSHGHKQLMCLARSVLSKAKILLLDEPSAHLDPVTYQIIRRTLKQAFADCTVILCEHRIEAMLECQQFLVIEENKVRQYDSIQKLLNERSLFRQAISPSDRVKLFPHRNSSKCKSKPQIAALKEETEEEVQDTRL

Structure (SMILES) | Emax | EC50
O=S1(=O)Nc2ccc(C(F)(F)F)c(n2)-c2ccccc2CCCCC(CCCO)Oc2cccc1n2 (stereo not drawn) [Compound 109, 7-(3-hydroxypropyl)-2^3-(trifluoromethyl)-6-oxa-4-thia-3-aza-2,5(2,6)-dipyridina-1(1,2)-benzenacycloundecaphane 4,4-dioxide] | 186% | 386 nM
O=C(O)CCC1CCCCc2ccccc2-c2nc(ccc2C(F)(F)F)NS(=O)(=O)c2cccc(n2)O1 (stereo not drawn) [Compound 110, 3-(4,4-dioxido-2^3-(trifluoromethyl)-6-oxa-4-thia-3-aza-2,5(2,6)-dipyridina-1(1,2)-benzenacycloundecaphane-7-yl)propanoic acid] | 170% | 477 nM
O=S1(=O)Nc2ccc(Cl)c(n2)-c2ccccc2CCCCCCOc2cccc1n2 [Compound 111, 2^3-chloro-6-oxa-4-thia-3-aza-2,5(2,6)-dipyridina-1(1,2)-benzenacyclododecaphane 4,4-dioxide] |  | 1060 nM
O=S1(=O)Nc2ccc(Cl)c(n2)-c2ccccc2CCCCOc2cccc1n2 [Compound 112, 2^3-chloro-6-oxa-4-thia-3-aza-2,5(2,6)-dipyridina-1(1,2)-benzenacyclodecaphane 4,4-dioxide] | 644% | 2600 nM
O=S1(=O)Nc2ccc(Cl)c(n2)-c2ccccc2CCCCCOc2cccc1n2 [Compound 113, 2^3-chloro-6-oxa-4-thia-3-aza-2,5(2,6)-dipyridina-1(1,2)-benzenacycloundecaphane 4,4-dioxide] | 664% | 2150 nM
O=S1(=O)Nc2ccc(Cl)c(n2)-c2ccccc2CCCOc2cccc1n2 [Compound 114, 2^3-chloro-6-oxa-4-thia-3-aza-2,5(2,6)-dipyridina-1(1,2)-benzenacyclononaphane 4,4-dioxide] | 97.1% | 3310 nM
O=S1(=O)Nc2ccc(C(F)(F)F)c(n2)-c2ccccc2CCCCNc2cccc1n2 [Compound 115, 2^3-(trifluoromethyl)-4-thia-3,6-diaza-2,5(2,6)-dipyridina-1(1,2)-benzenacyclodecaphane 4,4-dioxide] | 430% | 456 nM
O=S1(=O)Nc2ccc(C(F)(F)F)c(n2)-c2ccccc2CCCCN(CCO)c2cccc1n2 [Compound 116, 6-(2-hydroxyethyl)-2^3-(trifluoromethyl)-4-thia-3,6-diaza-2,5(2,6)-dipyridina-1(1,2)-benzenacyclodecaphane 4,4-dioxide] | 737% | 445 nM
O=S1(=O)Nc2ccc(C(F)(F)F)c(n2)-c2ccccc2CCCCCNc2cccc1n2 [Compound 118, 2^3-(trifluoromethyl)-4-thia-3,6-diaza-2,5(2,6)-dipyridina-1(1,2)-benzenacycloundecaphane 4,4-dioxide] | 705% | 511 nM
O=S1(=O)Nc2ccc(C(F)(F)F)c(n2)-c2ccccc2CCCOCCNc2cccc1n2 [Compound 119, 2^3-(trifluoromethyl)-9-oxa-4-thia-3,6-diaza-2,5(2,6)-dipyridina-1(1,2)-benzenacyclododecaphane 4,4-dioxide] | 356% | 866 nM
O=C(O)CN1CCCCCCc2ccccc2-c2nc(ccc2C(F)(F)F)NS(=O)(=O)c2cccc1n2 [Compound 120, 2-(4,4-dioxido-2^3-(trifluoromethyl)-4-thia-3,6-diaza-2,5(2,6)-dipyridina-1(1,2)-benzenacyclododecaphane-6-yl)acetic acid] | 949% | 1410 nM
O=S1(=O)Nc2ccc(C(F)(F)F)c(n2)-c2ccccc2CCCCCN(CCN2CCNCC2)c2cccc1n2 [Compound 121, 6-(2-(piperazin-1-yl)ethyl)-2^3-(trifluoromethyl)-4-thia-3,6-diaza-2,5(2,6)-dipyridina-1(1,2)-benzenacycloundecaphane 4,4-dioxide] | 348% | 495 nM
O=S1(=O)Nc2ccc(C(F)(F)F)c(n2)-c2ccccc2CCCCCN(CCN2CCCC2)c2cccc1n2 [Compound 122, 6-(2-(pyrrolidin-1-yl)ethyl)-2^3-(trifluoromethyl)-4-thia-3,6-diaza-2,5(2,6)-dipyridina-1(1,2)-benzenacycloundecaphane 4,4-dioxide] | 226% | 1220 nM
O=S1(=O)Nc2ccc(C(F)(F)F)c(n2)-c2ccccc2CCCCCN(CCN2C[C@H](O)[C@@H](O)C2)c2cccc1n2 [Compound 123, 6-(2-((3S,4S)-3,4-dihydroxypyrrolidin-1-yl)ethyl)-2^3-(trifluoromethyl)-4-thia-3,6-diaza-2,5(2,6)-dipyridina-1(1,2)-benzenacycloundecaphane 4,4-dioxide] | 308% | 1840 nM
O=S1(=O)Nc2ccc(C(F)(F)F)c(n2)-c2ccccc2CCCCCN(CCN2CC(O)C2)c2cccc1n2 [Compound 124, 6-(2-(3-hydroxyazetidin-1-yl)ethyl)-2^3-(trifluoromethyl)-4-thia-3,6-diaza-2,5(2,6)-dipyridina-1(1,2)-benzenacycloundecaphane 4,4-dioxide] | 382% | 1640 nM
CN1CCN(CCN2CCCCCc3ccccc3-c3nc(ccc3C(F)(F)F)NS(=O)(=O)c3cccc2n3)CC1 [Compound 125, 6-(2-(4-methylpiperazin-1-yl)ethyl)-2^3-(trifluoromethyl)-4-thia-3,6-diaza-2,5(2,6)-dipyridina-1(1,2)-benzenacycloundecaphane 4,4-dioxide] | 162% | 931 nM
COC(=O)CNCCN1CCCCCc2ccccc2-c2nc(ccc2C(F)(F)F)NS(=O)(=O)c2cccc1n2 [Compound 126, methyl (2-(4,4-dioxido-2^3-(trifluoromethyl)-4-thia-3,6-diaza-2,5(2,6)-dipyridina-1(1,2)-benzenacycloundecaphane-6-yl)ethyl)glycinate] | 488% | 831 nM
O=C(O)CNCCN1CCCCCc2ccccc2-c2nc(ccc2C(F)(F)F)NS(=O)(=O)c2cccc1n2 [Compound 127, (2-(4,4-dioxido-2^3-(trifluoromethyl)-4-thia-3,6-diaza-2,5(2,6)-dipyridina-1(1,2)-benzenacycloundecaphane-6-yl)ethyl)glycine] | 93.6% | 3630 nM
O=S1(=O)Nc2ccc(C(F)(F)F)c(n2)-c2ccccc2CCCCCN(CC(O)CO)c2cccc1n2 (stereo not drawn) [Compound 128, 6-(2,3-dihydroxypropyl)-2^3-(trifluoromethyl)-4-thia-3,6-diaza-2,5(2,6)-dipyridina-1(1,2)-benzenacycloundecaphane 4,4-dioxide] | 435% | 275 nM
O=S1(=O)Nc2ccc(C(F)(F)F)c(n2)-c2ccccc2CCCCCN(C[C@H](O)[C@@H](O)CO)c2cccc1n2 [Compound 129, 2^3-(trifluoromethyl)-6-((2S,3S)-2,3,4-trihydroxybutyl)-4-thia-3,6-diaza-2,5(2,6)-dipyridina-1(1,2)-benzenacycloundecaphane 4,4-dioxide] | 506% | 265 nM
NCCN1CCCCc2ccccc2-c2nc(ccc2C(F)(F)F)NS(=O)(=O)c2cccc1n2 [Compound 130, 6-(2-aminoethyl)-2^3-(trifluoromethyl)-4-thia-3,6-diaza-2,5(2,6)-dipyridina-1(1,2)-benzenacyclodecaphane 4,4-dioxide] | 188% | 2440 nM
O=S1(=O)Nc2ccc(C(F)(F)F)c(n2)-c2ccccc2CCCCNCCNc2cccc1n2 [Compound 131, 2^3-(trifluoromethyl)-4-thia-3,6,9-triaza-2,5(2,6)-dipyridina-1(1,2)-benzenacyclotridecaphane 4,4-dioxide] | 30.7% | 3900 nM
NCCN1CCCCCc2ccccc2-c2nc(ccc2C(F)(F)F)NS(=O)(=O)c2cccc1n2 [Compound 132, 6-(2-aminoethyl)-2^3-(trifluoromethyl)-4-thia-3,6-diaza-2,5(2,6)-dipyridina-1(1,2)-benzenacycloundecaphane 4,4-dioxide] | 259% | 2670 nM
O=C1c2ccccc2C(=O)N1CCCN1CCCCCc2ccccc2-c2nc(ccc2C(F)(F)F)NS(=O)(=O)c2cccc1n2 [Compound 133, 2-(3-(4,4-dioxido-2^3-(trifluoromethyl)-4-thia-3,6-diaza-2,5(2,6)-dipyridina-1(1,2)-benzenacycloundecaphane-6-yl)propyl)isoindoline-1,3-dione] | 569% | 457 nM
O=C1C2CCCCC2C(=O)N1CCCN1CCCCCc2ccccc2-c2nc(ccc2C(F)(F)F)NS(=O)(=O)c2cccc1n2 (stereo not drawn) [Compound 134, 2-(3-(4,4-dioxido-2^3-(trifluoromethyl)-4-thia-3,6-diaza-2,5(2,6)-dipyridina-1(1,2)-benzenacycloundecaphane-6-yl)propyl)hexahydro-1H-isoindole-1,3(2H)-dione] | 410% | 608 nM
O=C(O)CC[C@H]1CCCCc2ccccc2-c2nc(ccc2C(F)(F)F)NS(=O)(=O)c2cccc(n2)N1 [Compound 135, (R)-3-(4,4-dioxido-2^3-(trifluoromethyl)-4-thia-3,6-diaza-2,5(2,6)-dipyridina-1(1,2)-benzenacycloundecaphane-7-yl)propanoic acid] | 651% | 154 nM
